According to patent US10888574B2, “Method for suppressing obesity, method for treating obesity, and method for promoting gene expression” (Kinjirushi Co., Ltd., priority 2017, dated 2021):

Experiments:
UCP1 gene = assay: Quantitative determination of expression level of UCP1 gene in brown adipocytes (real-time PCR, GAPDH internal standard); assay type: cell-based; details: rat primary brown adipocytes; for Relative value of UCP1 gene expression, Average: control = 1.00, n=3; for UCP1 gene expression as compared with the control (in words): FIG. 1
Method: (§1) In each example, as described below, brown adipocytes were cultured in a test medium to which each of various test substances has been added, and then quantitative determination of expression level of UCP1 gene and quantitative determination of lipid droplets by Oil Red 0 staining were performed.
(§2) Noradrenaline, isovitexin, and isosaponarin were each added to the maintenance medium. The final concentration in each media was set to 1 μmol/L for noradrenaline; 1 mmol/L, 100 μmol/L, and 10 μmol/L for isovitexin; and 1 mmol/L, 100 μmol/L, and 10 μmol/L for isosaponarin.
(§3) The brown adipocytes used in the test were those contained in the rat-derived primary brown adipocyte culture kit (manufactured by Cosmo Bio Co., Ltd., code number: BAT02). Using the above-described growth medium, the brown adipocytes were inoculated in the respective wells of a 24-well plate at a density of 3×10^4 cells/well. The brown adipocytes were cultured at 37° C. with 5% CO2 for 3 days in a CO2 incubator (multi-gas incubator, manufactured by Panasonic Healthcare Holdings Co., Ltd., product number: MCO-19MUVH). Next, the medium in each well was replaced with the differentiation-inducing medium, and culture was performed for 2 days in the CO2 incubator (5% CO2, 37° C.). Then, the medium in each well was replaced with the above-described maintenance medium, and culture was performed for 2 days in the CO2 incubator (5% CO2, 37° C.). Further, the medium in each well was replaced with the above-described maintenance medium again, and the brown adipocytes were cultured for 1 day in the CO2 incubator (5% CO2, 37° C.). Subsequently, analysis of gene expression and evaluation by Oil Red 0 staining were performed as below.
RNAs were recovered from the brown adipocytes using 0.2 mL per well of TRI Reagent (manufactured by Molecular Research Center, Inc., catalog number: TR118). Using 500 ng of each sample RNA, cDNA synthesis was performed using a cDNA synthesis kit (product name: SuperScript [registered trademark] VILO™ cDNA Synthesis Kit, manufactured by Thermo Fisher Scientific Inc., catalog number: 11754050). Real-time PCR was performed using a real-time PCR kit (product name: LightCycler [registered trademark] Taqman [registered trademark] Master, manufactured by Roche Applied Science, catalog number: 4735536) and a real-time PCR device (product name: LigthCycler [registered trademark] 480 System II, manufactured by Roche Diagnostics). Analysis of UCP1 gene expression was performed using GAPDH as an internal standard.
Primers and probes used in the test were as follows: • UCP1 primer, • forward primer: […] (SEQ ID No. 1, synthesized by Sigma-Aldrich Co. LLC), • reverse primer: tggccttcaccttggatct (SEQ ID No. 2, synthesized by Sigma-Aldrich Co. LLC), • probe: Universal ProbeLibrary probe #130 (manufactured by Roche Life Science Co. Ltd.), • GAPDH primer, • forward primer: […] (SEQ ID No. 3, synthesized by Sigma-Aldrich Co. LLC), • reverse primer: […] (SEQ ID No. 4, synthesized by Sigma-Aldrich Co. LLC), and
probe: Universal ProbeLibrary probe #80 (manufactured by Roche Life Science Co. Ltd.).
The number of experiments performed was three. […] The significant difference is indicated as “<0.05” when the significance level of the t-test was 5%, and as “<0.01” when the significance level was 1%.

brown adipocytes = assay: Quantitative determination of lipid droplets by Oil Red O staining in brown adipocytes; assay type: cell-based, rat; details: for Quantity of lipid droplets produced, Average: relative absorbance at 540 nm, control = 100, n=3; for Quantity of lipid droplets produced compared with medium without the substance (in words): rat primary brown adipocytes, FIG. 2
Method: as §1, §2, §3
Lipid droplets in the cell cultured as described in the above item (2) were quantitatively determined through the steps below using Lipid Assay Kit (manufactured by Cosmo Bio Co., Ltd., code number: AK09F).
Step 2-1. Fixative solution was prepared by mixing the following ingredients together: • 37% formaldehyde solution (formalin stock solution): 100 mL, • purified water: 900 mL, • sodium dihydrogen phosphate monohydrate (NaH2PO4·H2O): 4 g, and • disodium hydrogen phosphate, anhydrous (Na2HPO4): 6.5 g.
Step 2-2. The culture solution was removed from the well plate subjected to the culture operation in the above “(2) Culture of brown adipocytes”. Then, each well was washed once with 500 μL per well of PBS.
Step 2-3. 500 μL per well of the fixative solution prepared in Step 2-1 was added to each well, and the well plate was left at rest overnight at room temperature.
Step 2-4. After the immobilization, washing of each well with 500 μL per well of purified water was performed.
Step 2-5. Undiluted Oil Red 0 solution in the kit and purified water were mixed together at a ratio of 6:4 (volume ratio) to obtain a mixed solution, and the mixed solution was left at rest at room temperature for 10 to 15 minutes. Then, the mixed solution was filtered through a membrane filter having pores with a pore diameter of 0.5 to 1.0 μm. The filtrate was used as Oil Red 0 solution.
Step 2-6. 500 μL of the above-described Oil Red 0 solution was dispensed into each well, and the well plate was left at rest at room temperature for 15 minutes.
Step 2-7. After that, the Oil Red 0 solution was removed from the well, and each well was washed with purified water three times or more. Such washing was performed thoroughly until the used purified water becomes clear.
Step 2-8. 500 μL of solvent for extraction in the kit was added into the dried well, and pigments were eluted. 0.1 mL of the eluate with the pigments eluted therein was dispensed into each well of a 96-well plate, and absorbance at a wavelength of 540 nm was measured with a micro-plate reader (Infinite [registered trademark] M200 PRO, manufactured by TECAN). […]

Compound	Relative value of UCP1 gene expression, Average (UCP1 gene; final concentration 10 μmol/L)	Relative value of UCP1 gene expression, Average (UCP1 gene; final concentration 100 μmol/L)	Relative value of UCP1 gene expression, Average (UCP1 gene; final concentration 1 mmol/L)	UCP1 gene expression as compared with the control (in words) (UCP1 gene)	Quantity of lipid droplets produced, Average (brown adipocytes; concentration 10 μmol/L) [%]	Quantity of lipid droplets produced, Average (brown adipocytes; concentration 100 μmol/L) [%]	Quantity of lipid droplets produced, Average (brown adipocytes; concentration 1 mmol/L) [%]	Quantity of lipid droplets produced compared with medium without the substance (in words) (brown adipocytes)	Relative value of UCP1 gene expression, Average (UCP1 gene; final concentration 1 μmol/L)
O=c1cc(-c2ccc(OC3OC(CO)C(O)C(O)C3O)cc2)oc2cc(O)c(C3OC(CO)C(O)C(O)C3O)c(O)c12 (centres unmarked) [Isosaponarin]	1.17	1.30	1.18	significant increase in UCP1 gene expression	104.0	97.7	98.9	quantity of lipid droplets produced was smaller	
O=c1cc(-c2ccc(O)cc2)oc2cc(O)c([C@@H]3O[C@H](CO)[C@@H](O)[C@H](O)[C@H]3O)c(O)c12 [Isovitexin]	1.30	1.30	1.45	significant increase in UCP1 gene expression	84.8	83.3	77.8	quantity of lipid droplets produced was smaller	
NC[C@H](O)c1ccc(O)c(O)c1 [Noradrenaline, reference compound]									1.38
